This is an account of results in patent US9914731B2, “Pyrazolo[1,5-a]pyridine derivatives and methods of their use” (Ignyta, Inc., priority 2013, dated 2018).

In general, IC50 refers to the concentration at which inhibition is half-maximal.

Structures are written as SMILES. Like-named read-outs stand apart in the source and are kept apart here.

In experiment [1] the target is recombinant human baculovirus-expressed AXL (Homo sapiens (Human), UniProt P30530). The experiment can be described thus: AXL kinase assay (HTRF KinEASE). Format: biochemical. Conditions: average of two or more determinations. A general note: Time-resolved FRET reads energy transfer from a long-lived donor to a nearby acceptor.
Experiment [2] deals with recombinant human baculovirus-expressed cMET (Homo sapiens (Human), UniProt P08581). As to the kind of experiment: c-MET kinase assay (HTRF KinEASE). The class given is biochemical. The conditions noted are these: read-out: c-MET IC50.
[3] abbreviates: average of two or more determinations.

On to `CCn1nc(C(=O)Nc2ccc(Oc3cc(-c4cn(C)cn4)cn4nccc34)c(F)c2)c(=O)n(-c2ccc(F)cc2)c1=O` [Example 128, 2-Ethyl-4-(4-fluoro-phenyl)-3,5-dioxo-2,3,4,5-tetrahydro-1,2,4-triazine-6-carboxylic acid {3-fluoro-4-[6-(1-methyl-1H-imidazol-4-yl)-pyrazolo[1,5-a]pyridin-4-yloxy]-phenyl}-amide], for which the IC50 in experiment [1] and in experiment [2] (setting [3]) was < 10 nM in each case.

Consider `Cc1ccc(C(=O)Nc2ccc(Oc3cc(-c4cnn(C)c4)cn4nccc34)c(F)c2)c(=O)n1-c1ccc(F)cc1` [Example 34, 1-(4-Fluoro-phenyl)-6-methyl-2-oxo-1,2-dihydro-pyridine-3-carboxylic acid {3-fluoro-4-[6-(1-methyl-1H-pyrazol-4-yl)-pyrazolo[1,5-a]pyridin-4-yloxy]-phenyl}-amide], for which the IC50 in experiment [1] and in experiment [2] (setting [3]) was < 10 nM throughout.

As for `O=C(Nc1ccc(Oc2cc(N3CCC(O)CC3)cn3nccc23)c(F)c1)c1cccn(-c2ccc(F)cc2)c1=O` [Example 68, 1-(4-Fluoro-phenyl)-2-oxo-1,2-dihydro-pyridine-3-carboxylic acid{3-fluoro-4-[6-(4-hydroxy-piperidin-1-yl)-pyrazolo[1,5-a]pyridin-4-yloxy]-phenyl}-amide], the concentration for half-maximal inhibition (IC50) in experiment [1] and in experiment [2] (setting [3]) was < 10 nM each time.

In the case of `CCn1cc(C(=O)Nc2ccc(Oc3cc(-c4cn(C)cn4)cn4nccc34)c(F)c2)c(=O)n(-c2ccc(F)cc2)c1=O` [Example 93, 1-Ethyl-3-(4-fluoro-phenyl)-2,4-dioxo-1,2,3,4-tetrahydro-pyrimidine-5-carboxylic acid {3-fluoro-4-[6-(1-methyl-1H-imidazol-4-yl)-pyrazolo[1,5-a]pyridin-4-yloxy]-phenyl}-amide], the half-maximal inhibitory concentration (IC50) in experiment [1] and in experiment [2] (setting [3]) was < 10 nM in each case.

As for `Cn1nccc1-c1cc(Oc2ccc(NC(=O)c3cccn(-c4ccc(F)cc4)c3=O)cc2F)c2ccnn2c1` [Example 41, 1-(4-Fluoro-phenyl)-2-oxo-1,2-dihydro-pyridine-3-carboxylic acid{3-fluoro-4-[6-(2-methyl-2H-pyrazol-3-yl)-pyrazolo[1,5-a]pyridine-4-yloxy]-phenyl}-amide], the IC50 in experiment [2] (setting [3]) is < 10 nM.

As for `CCOc1ccn(-c2ccc(F)cc2)c(=O)c1C(=O)Nc1ccc(Oc2cc(N3CCOCC3)cn3nccc23)c(F)c1` [Example 66, 4-Ethoxy-1-(4-fluoro-phenyl)-2-oxo-1,2-dihydro-pyridine-3-carboxylic acid [3-fluoro-4-(6-morpholin-4-yl-pyrazolo[1,5-a]pyridin-4-yloxy)-phenyl]-amide], the IC50 in experiment [2] is < 10 nM.

Regarding `CC(C)n1cc(C(=O)Nc2ccc(Oc3cc(C(=O)N(C)C)cn4nccc34)c(F)c2)c(=O)n(-c2ccc(F)cc2)c1=O` [Example 138, 4-(2-Fluoro-4-{[3-(4-fluoro-phenyl)-1-isopropyl-2,4-dioxo-1,2,3,4-tetrahydro-pyrimidine-5-carbonyl]-amino}-phenoxy)-pyrazolo[1,5-a]pyridine-6-carboxylic acid dimethylamide], the IC50 in experiment [2] (setting [3]) was < 10 nM.

For `O=C(Nc1ccc(Oc2cc(N3CCS(=O)(=O)CC3)cn3nccc23)c(F)c1)c1cccn(-c2ccc(F)cc2)c1=O` [Example 72, 1-(4-Fluoro-phenyl)-2-oxo-1,2-dihydro-pyridine-3-carboxylic acid{4-[6-(1,1-dioxo-thiomorpholin-4-yl)-pyrazolo[1,5-a]pyridin-4-yloxy]-3-fluoro-phenyl}-amide], in experiment [2] (setting [3]), the concentration for half-maximal inhibition (IC50) is 10 to 100 nM.

For `Cc1c(C(=O)Nc2ccc(Oc3cccn4nccc34)cc2)cnn1-c1ccc(F)cc1` [Example 18, 1-(4-Fluoro-phenyl)-5-methyl-1H-pyrazole-4-carboxylic acid [4-(pyrazolo[1,5-a]pyridin-4-yloxy)-phenyl]-amide], in experiment [2] (setting [3]), the half-inhibitory concentration (IC50) fell in the range of 1000 to 10000 nM.
